The supplement of paper PMC10331698
± gives the standard deviation of the averaged measurements.

Columns and labels:
Assay in all cases: level (log10 ratio to DMSO vehicle control); higher = higher biomarker level / cell amount than vehicle control
[1] = compound: O=C(O)C(F)(F)C(F)(F)C(F)(F)OC(F)(F)F [Perfluoro(4-methoxybutanoic) acid] (in DMSO)
Method: (§1)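 BioMAP Diversity Plus panel of 12 human primary cell co-culture systems (3C, 4H, LPS, SAg, BT, BF4T, BE3C, CASM3C, HDF3CGF, KF3CT, MyoF, Mphg). Compounds were added 1 h before stimulation and left for 24 h (MyoF 48 h; BT 72 h for soluble read-outs or 6 d for IgG). Biomarkers were read by ELISA, cytotoxicity by SRB, PBMC viability and proliferation by Alamar Blue. Each well value was divided by the mean of 8 DMSO control wells on the same plate and log10 transformed; duplicate blinded samples were tested at 4 concentrations.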

[2] = compound: O=C(O)C=C(C(F)(F)F)C(F)(F)F [3,3-Bis(trifluoromethyl)-2-propenoic acid] (in DMSO)
Method: as §1

[3] = compound: O=C(O)C(F)(OC(F)(F)C(F)(F)C(F)(F)F)C(F)(F)F [Ammonium perfluoro-2-methyl-3-oxahexanoate] (in Water)
Method: as §1

[4] = compound: O=C(O)C(F)(F)C(F)(F)C(F)(F)C(F)(F)C(F)(F)C(F)(F)C(F)(F)C(F)(F)C(F)(F)C(F)(F)F [Perfluoroundecanoic acid] (in DMSO); conditions: 6700 nM
Method: as §1

[5] = compound: OCC(F)(F)C(F)(F)C(F)(F)C(F)(F)C(F)(F)C(F)(F)CO [1H,1H,8H,8H-Perfluorooctane-1,8-diol] (in DMSO)
Method: as §1

[6] = compound: O=S(=O)(O)C(F)(F)C(F)(F)C(F)(F)C(F)(F)C(F)(F)C(F)(F)C(F)(F)F [Perfluoroheptanesulfonic acid] (in DMSO)
Method: as §1

[7] = compound: O=S(=O)(O)C(F)(F)C(F)(F)OC(F)(F)C(F)(F)F [Perfluoro(2-ethoxyethane)sulfonic acid] (in DMSO)
Method: as §1

Test System	level (log10) ([1]; 6700 nM)	level (log10) ([1]; 20000 nM)	level (log10) ([1]; 60000 nM)	level (log10) ([2]; 6700 nM)	level (log10) ([2]; 20000 nM)	level (log10) ([2]; 60000 nM)	level (log10) ([3]; 6700 nM)	level (log10) ([3]; 20000 nM)	level (log10) ([3]; 60000 nM)	level (log10) [4]	level (log10) ([5]; 6700 nM)	level (log10) ([5]; 20000 nM)	level (log10) ([5]; 60000 nM)	level (log10) ([6]; 1500 nM)	level (log10) ([6]; 4400 nM)	level (log10) ([6]; 13000 nM)	level (log10) ([6]; 40000 nM)	level (log10) ([7]; 6700 nM)	level (log10) ([7]; 20000 nM)	level (log10) ([7]; 60000 nM)
3C:CD87/uPAR	-0.03 ± 0.058	-0.035 ± 0.051	-0.0265 ± 0.04	0.0225 ± 0.0035	0.014 ± 0.02	-0.0035 ± 0.013	-0.016 ± 0.054	-0.0085 ± 0.028	-0.042 ± 0.021	-0.0125 ± 0.005	-0.0245 ± 0.026	-0.0125 ± 0.0092	-0.019 ± 0.0028	0.0655 ± 0.0078	0.0535 ± 0.021	0.0485 ± 0.044	0.0565 ± 0.064	0.0105 ± 0.0064	0.0165 ± 0.0021	0.007 ± 0.0071
3C:CXCL8/IL-8	0.008 ± 0.014	0.001 ± 0.0099	0.022 ± 0.025	0.038 ± 0.02	0.0255 ± 0.04	0.061 ± 0.071	0.038 ± 0.037	0.0745 ± 0.029	0.131 ± 0.014	-0.022 ± 0.02	-0.0045 ± 0.0021	-0.0055 ± 0.0064	0.0245 ± 0.023	0.007 ± 0.086	-0.0115 ± 0.013	0.0015 ± 0.03	0.055 ± 0.054	0.0295 ± 0.028	0.0455 ± 0.074	0.095 ± 0.062
3C:CXCL9/MIG	-0.012 ± 0.013	-0.012 ± 0.017	-0.001 ± 0.013	-0.015 ± 0.017	-0.004 ± 0.028	0.013 ± 0.025	-0.0085 ± 0.011	-0.003 ± 0.0099	-0.004	0.0025 ± 0.005	0.0015 ± 0.0035	-0.0025 ± 0.005	0.0105 ± 0.013	0.006 ± 0.0014	-0.006 ± 0.0071	0 ± 0.0057	0.0075 ± 0.011	-0.0005 ± 0.0064	-0.0045 ± 0.0035	0.0075 ± 0.0021
3C:HLA-DR	0.0105 ± 0.013	0.0055 ± 0.023	0.0015 ± 0.016	-0.012 ± 0.014	-0.0415 ± 0.039	-0.189 ± 0.031	0.0075 ± 0.011	0.0175 ± 0.028	0.016 ± 0.0014	-0.023 ± 0.0014	-0.0115 ± 0.015	-0.007 ± 0.0085	-0.0175 ± 0.026	0.0125 ± 0.0064	-0.0075 ± 0.0092	-0.005 ± 0.024	0.008 ± 0.016	-0.005	-0.0045 ± 0.005	0.008 ± 0.0099
3C:Proliferation	-0.057 ± 0.023	-0.0055 ± 0.046	-0.036 ± 0.03	-0.0425 ± 0.0021	-0.089 ± 0.02	-0.189 ± 0.1	-0.0765 ± 0.015	-0.136 ± 0.031	-0.149 ± 0.023	0.027 ± 0.013	-0.059 ± 0.024	-0.0565 ± 0.013	-0.106 ± 0.042	-0.0785 ± 0.13	-0.0425 ± 0.044	0.0015 ± 0.022	-0.0275 ± 0.021	-0.043 ± 0.025	-0.027 ± 0.034	-0.0325 ± 0.042
3C:SRB	-0.0175 ± 0.018	-0.0255 ± 0.018	-0.0195 ± 0.0064	0.0105 ± 0.019	-0.005 ± 0.025	-0.062 ± 0.03	-0.019 ± 0.011	-0.021 ± 0.0042	-0.045	0.0095 ± 0.015	0.012 ± 0.017	0.0035 ± 0.025	-0.0045 ± 0.04	-0.0295 ± 0.023	-0.0275 ± 0.0078	-0.0065 ± 0.016	-0.0125 ± 0.023	-0.022 ± 0.0042	-0.0025 ± 0.00071	-0.0275 ± 0.0021
4H:CCL2/MCP-1	-0.0235 ± 0.013	-0.026 ± 0.0028	0.0005 ± 0.061	-0.051 ± 0.035	-0.0675 ± 0.005	-0.081 ± 0.052	0.0005 ± 0.029	0.007 ± 0.037	0.008 ± 0.051	-0.024 ± 0.023	-0.058 ± 0.04	-0.0485 ± 0.018	-0.012 ± 0.02	-0.0125 ± 0.094	0.0165 ± 0.081	0.03 ± 0.05	0.0135 ± 0.012	-0.019 ± 0.05	-0.008 ± 0.021	-0.0015 ± 0.016
4H:CCL26/Eotaxin-3	0.018 ± 0.0085	0.0205 ± 0.013	0.0245 ± 0.023	-0.02 ± 0.044	-0.042 ± 0.0042	-0.121 ± 0.0064	-0.0615 ± 0.0021	-0.064 ± 0.0014	-0.118 ± 0.012	0.016 ± 0.03	0.0095 ± 0.019	0.0125 ± 0.019	0.0125 ± 0.0021	-0.006 ± 0.025	-0.061 ± 0.035	-0.0335 ± 0.011	-0.0665 ± 0.022	0.049 ± 0.027	0.0585 ± 0.0078	0.0405 ± 0.00071
4H:CD62P/P-selectin	0.0035 ± 0.0078	0.033 ± 0.068	-0.005 ± 0.059	0.005 ± 0.0042	-0.0505 ± 0.022	-0.164 ± 0.028	-0.0475 ± 0.012	-0.0065 ± 0.03	-0.054 ± 0.048	0.064 ± 0.0028	-0.039 ± 0.0028	0.004 ± 0.011	0.0355 ± 0.0021	-0.0225 ± 0.043	-0.0165 ± 0.005	-0.002 ± 0.02	0.0305 ± 0.022	-0.02 ± 0.014	0.0445 ± 0.005	-0.0105 ± 0.015
4H:CD87/uPAR	0.0495 ± 0.039	0.035 ± 0.048	0.046 ± 0.04	-0.053 ± 0.038	-0.0455 ± 0.037	-0.025 ± 0.062	-0.033 ± 0.027	-0.024 ± 0.033	-0.06 ± 0.0014	-0.008 ± 0.025	-0.013 ± 0.0014	-0.0065 ± 0.0021	-0.03 ± 0.017	-0.0135 ± 0.032	0.0325 ± 0.00071	0.0455 ± 0.005	0.0355 ± 0.029	0.017 ± 0.062	0.0005 ± 0.049	0.0065 ± 0.059
4H:CD106/VCAM-1	-0.0105 ± 0.012	-0.0075 ± 0.005	-0.002 ± 0.018	-0.12 ± 0.037	-0.143 ± 0.017	-0.25 ± 0.028	-0.0455 ± 0.005	-0.0365 ± 0.018	-0.037 ± 0.021	-0.03 ± 0.0057	-0.0295 ± 0.005	0.015 ± 0.023	-0.007 ± 0.0085	-0.002 ± 0.062	-0.029 ± 0.017	-0.0345 ± 0.019	-0.0295 ± 0.03	-0.0085 ± 0.00071	0.0075 ± 0.037	0.01 ± 0.033
4H:SRB	-0.01 ± 0.0014	-0.018 ± 0.0099	-0.0155 ± 0.0021	-0.008 ± 0.0042	-0.026 ± 0.027	-0.0615 ± 0.015	-0.0075 ± 0.012	-0.018 ± 0.014	-0.0115 ± 0.005	-0.0105 ± 0.011	0.0105 ± 0.0021	0.006 ± 0.0071	-0.01 ± 0.025	-0.0185 ± 0.012	-0.007 ± 0.014	-0.0055 ± 0.013	-0.0065 ± 0.018	-0.015 ± 0.0057	-0.0035 ± 0.0021	-0.016 ± 0.023
4H:VEGFR2	0.009 ± 0.033	0.019 ± 0.038	0.0075 ± 0.011	-0.02	-0.019 ± 0.0099	-0.04 ± 0.0057	0.0035 ± 0.04	0.007 ± 0.014	0.0095 ± 0.018	-0.008 ± 0.0085	-0.0165 ± 0.042	0.01 ± 0.018	0.047 ± 0.068	0.023 ± 0.041	-0.013 ± 0.0085	-0.005 ± 0.044	0.043 ± 0.1	0.009 ± 0.086	0.028 ± 0.057	0.0365 ± 0.12
BE3C:CD54/ICAM-1	-0.0015 ± 0.013	-0.007 ± 0.0085	-0.007 ± 0.017	-0.004 ± 0.017	0.0025 ± 0.0021	0.031 ± 0.04	-0.007 ± 0.0057	-0.0025 ± 0.0035	-0.016	0.004 ± 0.016	0.013 ± 0.0057	0.0185 ± 0.018	-0.003 ± 0.03	0.006 ± 0.027	0.0015 ± 0.022	-0.0025 ± 0.036	0.0055 ± 0.052	0.001 ± 0.011	-0.0115 ± 0.0092	-0.022 ± 0.017
